Assay results as given in patent US20230058961A1, “SUBSTITUTED HETEROCYCLICS WITH THERAPEUTIC ACTIVITY IN HIV” (New York Blood Center, Inc., priority 2019, published 2023).

Tests used:
TZM-bl cells = conditions: human, 3 days
Description: (§1) The anti-HIV-1 activity was assessed in a single-cycle assay by infecting TZM-bl indicator cells with the pseudovirus HIV-1 HXB2 according to established procedures (F. Curreli, Y. D. Kwon, D. S. Belov, R. R. Ramesh, A. V. Kurkin, A. Altieri, P. D. Kwong, A. K. Debnath, J Med Chem 2017, 60, 3124-3153; which is incorporated herein by reference for all that it teaches about the conduct and interpretation of the assay).
(§2) The cytotoxicity of the small polycyclic molecules in TZM-bl cells was determined by using the colorimetric method CellTiter 96® AQueous One Solution Cell Proliferation Assay (MTS) (Promega) following the manufacturer's instructions. Briefly, TZM-bl cells were platted in a 96-well tissue culture plate at 1×10^4/well and cultured at 37° C. Following overnight incubation, the cells were incubated with 100 μl of the compounds at graded concentrations and cultured for 3 days. The MTS reagent was added to the cells and incubated for 4 h at 37° C. The absorbance was recorded at 490 nm.

pseudovirus HIV-1 HXB2 = assay: organism not typed; assay type: cell-based; conditions: anti-HIV-1 activity, single-cycle assay, TZM-bl cells, pseudovirus HIV-1 HXB2, read-out: IC50
in vitro = conditions: human
Description: as §1, §2

[1] = tested on: panel of HIV-1 Env Pseudoviruses (49 clones of clinical isolates, subtypes A, B, C, D, Arec); assay type: cell-based; conditions: 49 HIV-1 clones of clinical isolates

| SMILES | CC50 (TZM-bl cells) [µM] | IC50 (pseudovirus HIV-1 HXB2) [µM] | CC50 at 3 days (in vitro; CC50, cytotoxicity, TZM-bl cells, MTS, 3 days) [µM] | anti-HIV-1 activity against panel of HIV-1 Env pseudotypes (in words) [1] | CC50 at 3 days (in vitro; CC50) [µM] | IC50 (pseudovirus HIV-1 HXB2; Human immunodeficiency virus 1, HXB2, TZM-bl) [µM] |
| --- | --- | --- | --- | --- | --- | --- |
| NCC(NC(=O)c1ccc(-c2ccc(Cl)cn2)[nH]1)c1ncc(CO)s1 (stereo not shown) [Compound 1, N-(2-Amino-1-(5-(hydroxymethyl)thiazol-2-yl)ethyl)-5-(5-chloropyridin-2-yl)-1H-pyrrole-2-carboxamide] | 144 ± 7.5 | 0.85 ± 0.1 | > 100 | – | – | – |
| Cc1cc(-c2ccc(C(F)(F)F)cn2)[nH]c1C(=O)NC(CN)c1ncc(CO)s1 (stereo not shown) [Compound 8, N-(2-amino-1-(5-(hydroxymethyl)thiazol-2-yl)ethyl)-3-methyl-5-(5-(trifluoromethyl)pyridin-2-yl)-1H-pyrrole-2-carboxamide] | 109 ± 2 | – | – | sub-micromolar | – | – |
| CC(C)(N)C(NC(=O)c1ccc(-c2ccc(C(F)(F)F)cn2)[nH]1)c1ncc(CO)s1 (stereo not shown) [Compound 9, N-(2-Amino-1-(5-(hydroxymethyl)thiazol-2-yl)-2-methylpropyl)-5-(5-(trifluoromethyl)pyridin-2-yl)-1H-pyrrole-2-carboxamide] | 74 ± 3.6 | – | – | – | < 50 | – |
| NCC(NC(=O)c1ccc(-c2ccc(C(F)(F)F)cn2)[nH]1)c1nc(CCCO)cs1 (stereo not shown) [Compound 27, N-(2-Amino-1-(4-(3-hydroxypropyl)thiazol-2-yl)ethyl)-5-(5-(trifluoromethyl)pyridin-2-yl)-1H-pyrrole-2-carboxamide] | > 114 | 2.3 ± 0.3 | – | – | > 100 | – |
| Cc1cc(-c2ccc(C(F)(F)F)cn2)[nH]c1C(=O)NC(CN)c1nc(CO)cs1 (stereo not shown) [Compound 33, N-(2-Amino-1-(4-(hydroxymethyl)thiazol-2-yl)ethyl)-3-methyl-5-(5-(trifluoromethyl)pyridin-2-yl)-1H-pyrrole-2-carboxamide] | – | – | – | sub-micromolar | 85 ± 3 | – |
| Cc1cc(-c2ccc(C(F)(F)F)cn2)[nH]c1C(=O)NC(CN)c1cnc(CO)s1 (stereo not shown) [Compound 62, N-(2-Amino-1-(2-(hydroxymethyl)thiazol-5-yl)ethyl)-3-methyl-5-(5-(trifluoromethyl)pyridin-2-yl)-1H-pyrrole-2-carboxamide] | 63.8 ± 2.1 | 1.9 ± 0.25 | – | – | – | – |
| Cc1cc(-c2ccc(C(F)(F)F)cn2)[nH]c1C(=O)NC(CN)c1csc(CO)n1 (stereo not shown) [Compound 64, N-(2-Amino-1-(2-(hydroxymethyl)thiazol-4-yl)ethyl)-3-methyl-5-(5-(trifluoromethyl)pyridin-2-yl)-1H-pyrrole-2-carboxamide] | 47.8 ± 5.9 | 1.3 ± 0.2 | – | – | – | – |
| NCC(NC(=O)c1ccc(-c2ccc(C(F)(F)F)cn2)[nH]1)c1csc(CO)n1 (stereo not shown) [Compound 66, N-(2-Amino-1-(2-(hydroxymethyl)thiazol-4-yl)ethyl)-5-(5-(trifluoromethyl)pyridin-2-yl)-1H-pyrrole-2-carboxamide] | 85.1 ± 2.5 | 1.7 ± 0.2 | – | – | – | – |
| NCC(NC(=O)c1ccc(-c2ccc(Cl)cn2)[nH]1)c1csc(CO)n1 (stereo not shown) [Compound 68, N-(2-Amino-1-(2-(hydroxymethyl)thiazol-4-yl)ethyl)-5-(5-chloropyridin-2-yl)-1H-pyrrole-2-carboxamide] | > 106 | – | – | – | – | 8.2 ± 2.1 |
| NCC(NC(=O)c1ccc(-c2ccc(C(F)(F)F)cn2)[nH]1)c1csc(C(=O)NCCO)n1 (stereo not shown) [Compound 70, 4-(2-Amino-1-(5-(5-(trifluoromethyl)pyridin-2-yl)-1H-pyrrole-2-carboxamido)ethyl)-N-(2-hydroxyethyl)thiazole-2-carboxamide] | > 107 | > 21.3 | – | – | – | – |
